{
  "source": "ChEMBL document CHEMBL4196226",
  "about": "“5-HT2C Receptor Agonists for the Treatment of Obesity” (ACS Med Chem Lett, 2018)",
  "species": "Rattus norvegicus",
  "experiment": "Antiobesity activity in Sprague-Dawley rat assessed as reduction in cumulative food intake",
  "type": "functional, organism-based",
  "note": "Active and inactive are the calls of the source. The calls are words filed in the database; no cut-off is given here.",
  "data": [
    {"smiles": "FC(F)(F)CCc1ccnc2c1CC[C@@H]1CNCCN21", "values": [
      {"measurement": "Activity", "result": "Active"}
    ]}
  ]
}
